Source: patent US8889156B2, “Calcium-binding agents induce hair growth and/or nail growth” (priority 2009, dated 2014)
“Also recorded” adds a separate entry of the source.

Tests used:
[1] = Binding of calcium phosphate to immobilized DSS peptides on streptavidin-coated polystyrene beads; settings: biotin-conjugated peptide on beads, saturated CaHPO4 solutions
Procedure: Streptavidin-coated polystyrene beads with an average diameter of 4 μm (Spherotech, Lake Forest, Ill.) were incubated with either biotin-conjugated 8DSS (SEQ ID NO:33) peptide or unconjugated biotin (control beads). Beads were washed with PBS to remove unbound peptide (or unbound biotin in control beads) and incubated in a solution of PBS+1 mM CaCl2+1 mM NaHPO4 for 12 days prior to imaging. […] DSS-containing peptides containing C-terminal biotin labels were then synthesized and immobilized on streptavidin-coated beads. The beads were washed and incubated in solutions containing varying concentrations of CaHPO4 as before. Consistent with previous observations for the dentin phosphoproteins/phosphosphoryns as well as other phosphoproteins (Saito et al. (1997) Bone 21: 305-311; Saito et al. (2000) J Bone Miner Res., 15: 1615-1619), these immobilized peptides caused coaggregation of the beads with particles of amorphous CaHPO4 and eventually led to the deposition of crystalline material around the bead. […] By comparison, in the biotin-blocked control sample, nearly all beads were unaggregated and unassociated with precipitate (FIG. 9, panel B).

[2] = Nucleation of hydroxyapatite on tooth dentin (SBFn/SBFg, SEM); parameters: species or system human; settings: nondemineralized dentin, 12.5 μM peptide
Procedure: To determine whether applying DSS to various preparations of tissue promoted HA nucleation, that could ultimately lead to tissue remineralization, sagittally sectioned adult human teeth (obtained after extraction during normal clinical practice) were polished using a Streurs grinding wheel, and prepared for nucleation experiments. Half of the sections were demineralized with 35% phosphoric acid for 15 minutes, then rinsed thoroughly with deionized water. The other half were left untreated. All samples were then sonicated for five minutes to remove excess debris left from cutting and grinding and/or demineralization. Samples were treated with 12.5 μM 8DSS dissolved in 50 mM HEPES buffer solution (pH 7.0), buffer solution only, or left untreated. Samples were then immersed into a simulated body fluid (SBFn), meant to accelerate nucleation of hydroxyapatite (HA) crystals, for 4 hours. Following the nucleation step, samples were immersed in a magnesium and bicarbonate free solution (SBFg) in order to allow the nucleated HA crystals to grow. […] Both solutions were adjusted to pH 6.8. Crystals were grown in order to amplify the nucleated crystals for easy visualization by SEM.

[3] = Binding of labeled peptide to sagittally sectioned adult human molars (CLSM, Example 6); settings: fluorescein-labeled peptide, 10 min
Procedure: For binding experiments, sagittally sectioned adult human molars were incubated for 10 min in a solution of 12.5 p.M 5(6)-carboxyfluorescein-labeled 6DSS (SEQ ID NO:32) peptide containing 10 mM NaCl and 50 mM HEPES, pH 7.0. Control samples were prepared without peptide. Samples were rinsed after treatment and imaged by confocal laser scanning microscopy (CLSM) with illumination by a blue Kr/Ar laser (λ=488 nm) and a FITC emission filter. To test binding of DSS-containing peptides to biological tissue, sagittally sectioned human teeth were incubated treated with 6DSS (SEQ ID NO:32) (control samples were prepared without peptide), washed, and imaged by CLSM.

[4] = DSS-mediated remineralization of demineralized tooth surfaces with Quell Desensitizer (SEM); parameters: species or system human; settings: peptide pretreatment 1 h, then Quell Desensitizer 15 min
Procedure: Adult human molars, extracted during normal clinical practice, were sagittally sectioned (Accutom-50, Copenhagen, Denmark; CA-231 diamond blade) and demineralized with 19% ethylenediaminotetraacetic acid (EDTA) gel for 1 h, followed by immersion in deionized water and ultrasonication to remove debris. Samples were treated with either 12.5 p.M 8DSS (SEQ ID NO:33) peptide in 50 mM HEPES buffer (pH 7.0) or buffer alone (no peptide) or were left untreated for 1 h prior to remineralization with Quell Desensitizer (Pentron Technologies, Wallingford, Conn.), a remineralization solution consisting of aqueous solutions of calcium chloride and potassium phosphate, for 15 min. Samples were rinsed thoroughly prior to imaging by scanning electron microscopy. Having established that (DSS)n-containing peptides can bind to the dentin surface and that immobilized peptides could cause the accretion of calcium phosphate, we sought to determine whether these peptides could be used to recruit calcium phosphate to the dentin surface. Demineralized sections of extracted human teeth were treated with 8DSS (SEQ ID NO:33) peptide and then subjected to remineralization with Quell Desensitizer (Pentron Technologies), a commercially available remineralization product consisting of aqueous solutions of calcium chloride and potassium phosphate.

[5] = Tissue specific binding of labeled peptides to sections of human teeth (CLSM); settings: 5(6)-carboxyfluorescein-labeled peptide, ten minutes
Text: In order to investigate the tissue specificity of DSS peptide binding to tooth tissue, sections of human teeth were exposed to DSS peptides and variants, then imaged by CLSM. The peptides utilized for these experiments were 8DSS (SEQ ID NO:33), 8ASS (SEQ ID NO:26), 8DAA (SEQ ID NO:40), 8NAA (SEQ ID NO:41), 4DSS (SEQ ID NO:31), 4ESS (SEQ ID NO:34), 4NSS (SEQ ID NO:35), 4DTT (SEQ ID NO:36), 4ETT (SEQ ID NO:37), 4NTT (SEQ ID NO:38), and 6DSS (SEQ ID NO:32). Sagittal sections of human teeth extracted during normal clinical practice were polished and then incubated for ten minutes in a solution of the appropriate 5(6) carboxyfluorescein-labeled peptide (12.5pM) containing 10 mM NaCl and 50 mM HEPES, pH 7.0. Control samples were prepared without peptide. Samples were washed extensively after treatment and imaged by CLSM using blue laser illumination (A=488 nm) and a FITC emission filter, with identical camera and microscope settings for each sample. For each section, multiple scans were collected and assembled in an automated mode to generate panels of images representing an area of 13×13 mm, sufficient in most cases to encompass the whole section. […] Significant binding was also seen to the edges of the pulp cavity.

[6] = Binding of labeled peptides to carious lesions in teeth (CLSM); parameters: species or system human; settings: labeled peptide, settings optimized per sample
Text: Sections of human teeth containing obvious carious lesions, which consist of demineralized enamel, were polished and exposed to 5(6)-carboxyfluorescein-labeled DSS peptides and variants. The sections were washed extensively and imaged by CLSM using blue laser illumination (A=488 nm) and a FITC emission filter, with microscope and camera settings adjusted for each sample to optimize the signal detected from each peptide. The images were examined to identify the relative levels of peptide binding in healthy versus carious tissue. […] Given their ability to remineralize at sites of enamel degradation, they can also be used to initiate remineralization at sites of enamel degradation such as caries or injury sites without causing inappropriate nucleation on healthy tissue surfaces.

Substance: DSS DSS DSSDSS DSS DSS DSS DSS (DSSDSSDSSDSSDSSDSSDSSDSS; synthetic calcium-binding peptide 8DSS)
- aggregation/accretion of calcium phosphate by immobilized peptide [1]: effectively aggregate amorphous calcium phosphate
- crystal growth (nucleation) on dentin [2]: the most significant growth
- binding to dentin [3]: binds tightly to the dentin
- binding to enamel [3]: binding to the enamel almost completely absent
- mineral accumulation on demineralized dentin [4]: accumulated a continuous layer of calcium phosphate precipitate; also recorded: markedly enhanced the effectiveness of a commercially available remineralization product
- tissue pattern of binding in the tooth section [5]: bound primarily to the mantle dentin
- level of binding (staining) to tooth surfaces ([5]; identical settings): the greatest levels of staining
- specificity of binding to carious lesions versus healthy enamel [6]: highly specific binding to carious lesions
- strength of staining of carious lesions [6]: exceptionally strong staining of carious lesions
